The values that follow come from patent EP0837881B1, “CONJUGATES OF alpha-MSH WITH A FATTY ACID, PREPARATION METHOD THEREFOR, AND USE THEREOF AS A DRUG” (INSTITUT EUROPEEN DE BIOLOGIE CELLULAIRE, priority 1995, dated 2004).

One test concerns PGE2. Kind of test: Inhibition of PGE2 production by IL1-stimulated MRC5 fibroblasts, RIA (Example 7). Format: cell-based, humaine. The source says:
Mise en évidence de l'effet inhibiteur des conjugués 1 et 5 (composés P1 et P2) sur la production par des fibroblastes stimulés par l'IL 1, d'un métabolite de l'acide arachidonique, la PGE2.
Nous avons choisi d'utiliser la souche ATCC MRC5 entretenue au laboratoire de façon continue et déjà testée par Cannon et al. (J. Immunol., 1986). Après un repiquage, les fibroblastes sont cultivés dans des micropuits (plaque de 24 puits de 2 cm^2, Falcon). L'innoculum est de 30 000 cellules par puits; le milieu nutritif utilisé est composé de RPMI 1640 (90 %) et de sérum de veau foetal décomplémenté (SVF, 10 %). Le milieu est changé tous les deux jours jusqu'à confluence des cellules.
Les couches monocellulaires ainsi obtenues sont lavées puis préincubées pendant 24 heures dans du milieu frais ne contenant que 1 % de SVF. […] Après 20 minutes d'incubation en présence de ces composés, l'ILI recombinante humaine (Tebu, France) à la concentration de 5, 2,5 ou 0,5 ng/ml de milieu est mise en contact avec des cellules pendant 18 heures. A la fin de cette incubation les surnageants sont prélevés et congelés à - 80 ° C jusqu'à l'analyse. Les couches monocellulaires sont fixées au méthanol.
Le dosage RIA est effectué selon la méthode décrite par Dray et al. (Europ. J. Invest. 1975). 3 séries d'expériences en duplicate ont été réalisées pour chaque concentration de produit étudié et pour les contrôles. Les résultats sont exprimés en pg/µg d'ADN. L'effet inhibiteur est exprimé en pourcentage par rapport aux contrôles.
Afin d'éviter toute erreur possible due au comptage en microscopie optique, l'ADN a été dosé par méthode fluorimétrique selon le protocole décrit par Brunk et al. (Analytical Biochem., 1979).

For test [1], the system named is souris femelles C57 BL/6JICO. In words: Contact hypersensitivity test to dinitrofluorobenzene (DNFB), anti-allergic activity, topical application (Example 6). Format: in vivo. As to conditions: for % Augment. O. Gauche / % Augment. O. Droite: increase of ear thickness; for % Augment. O. Gauche / % Suppress. O. Gauche: left ear; for % Augment. O. Droite / % Suppress. O. Droite: right ear; for % Suppress. O. Gauche / % Suppress. O. Droite: suppression versus control lot. The text has this: Des souris femelles C57 BL/6JICO, âgées de 5 semaines sont réparties en dix lots de dix animaux (cinq par cage), avec libre accès à l'eau et à la nourriture, soumises à une photopériode de douze heures de lumière par vingt-quatre heures.
Les animaux des lots 1 à 6 reçoivent quotidiennement et par application topique sur la peau rasée du dos, les produits à étudier (conjugués 1 et 5 représentés par les composés P1 et P2 préparés selon les exemples 1 et 2), mis en solution dans du propylène glycol, sous un volume constant de 50 µl et cela pendant cinq jours consécutifs.
• Composé P1 - Lots 1, 2 et 3 - 2,5 µg, 0,5 µg et 0,1 µg /souris/jour respectivement. • Composé P2 - Lots 4, 5 et 6 - 2,5 µg, 0,5 µg et 0.1 µg /souris/jour respectivement.
Les animaux du lot 10 servent de témoins (ils reçoivent seulement, 50 µl de propylène glycol par application topique pendant cinq jours).
Au cinquième jour, trente minutes après la dernière application toutes les souris sont sensibilisées avec 25 µl de D N F B (2,4-dinitro-1-fluorobenzène (FLUKA CHEMIKA PURUM à 97 % lot n° 33820890)) à 2 % dans un mélange 4 pour 1 d'acétone (SDS réf 0510) et de trioléine (FLUKA) appliqué par voie topique sur la région dorsale de peau rasée.
Au sixième jour, on procède à une nouvelle sensibilisation par application de D N F B.
Au onzième jour, l'épaisseur des oreilles des souris, est mesurée à l'aide d'un micromètre (ROCH 0 à 25 mm au 1/100 mm) afin d'obtenir des valeurs de base, puis les oreilles sont stimulées par application topique de 20 µl de DNFB à 0,8 %.
Au douzième jour, l'épaisseur des oreilles est à nouveau mesurée. On établit la valeur moyenne de l'épaississement des oreilles pour les souris des lots qui ont reçu les produits à étudier, ainsi que pour les souris du lot témoin.
Le pourcentage de suppression éventuelle sera exprimé par le calcul suivant : (T-E)/(T)x100 [formula] avec T pour le pourcentage d'augmentation de l'épaisseur moyenne des oreilles du lot témoin et E pour celui des lots qui ont reçu les produits à étudier.

For a further test, the system named is souris. In words: Comparative DNFB contact hypersensitivity test, conjugate versus its peptide alone (Example 9). Format: in vivo. The text has this:
La méthode utilisée est celle décrite précédemment dans l'exemple N° 4, hypersensibilité de contact induite chez la souris par la D N F B. • Produits étudiés Lot I : [formula] - Conjugué 1 représenté par le composé P3. Lot II : Me.Nle - Glu - His - D-homo-Phé - Arg - Trp - Gly - NH2 Lot T : Témoin = Acide trans-10-hydroxy-2-décénoïque.
Solvant : le propylène glycol précédemment employé comme témoin dans l'exemple 6.
Une mesure de l'activité du témoin sera effectuée pour chaque expérimentation. - Expérimentation et posologie
Témoin: 10 ng d' acide trans-10-hydroxy-2-décénoïque par souris et par jour.
Au cinquième jour, trente minutes après la dernière application toutes les souris sont sensibilisées avec 25 µl de D N F B (2.4-dinitro-1-fluorobenzène (FLUKA CHEMIKA PURUM à 97 % lot N° 33820890)) à 2 % dans un mélange 4 pour 1 d'acétone (SDS réf. 05510) et de trioléine (FLUKA) appliqué par voie topique sur la région dorsale de peau rasée. Au sixième jour, on procède à une nouvelle sensibilisation par application de D N F B. Au onzième jour, l'épaisseur des oreilles des souris, est mesurée à l'aide d'un micromètre (ROCH 0 à 25 mm au 1/100 mm) afin d'obtenir des valeurs de base, puis les oreilles sont stimulées par application topique de 20 µl de D N F B à 0,8 %. Au douzième jour, l'épaisseur des oreilles est à nouveau mesurée. On établit la valeur moyenne de l'épaississement des oreilles pour les souris des lots qui ont reçu les produits à étudier, ainsi que pour les souris du lot témoin.Le pourcentage de suppression éventuelle sera exprimé par la même équation que dans l'exemple 6.

Setting [2] is: 0,1 µg/souris/jour topical for 5 days in propylene glycol.
Setting [3] is: 0,1 µg/souris/jour topical for 5 days.
The mark [4] stands for this setting: 0,5 µg/souris/jour topical for 5 days in propylene glycol.
Where [5] appears, read: 0,5 µg/souris/jour topical for 5 days.
The mark [6] stands for this setting: 2,5 µg/souris/jour topical for 5 days in propylene glycol.
Where [7] appears, read: 2,5 µg/souris/jour topical for 5 days.

Values joined by “and” are separate entries in the source; they are usually repeats but may differ in a detail not shown here. Equal entries are not always repeated. Numbered stars: 1 amine (or outer) side, 2 acyl side, 3 side chain; on linkers, the order of the positions; unused ones are H or OH. Square brackets hold non-standard residues; d marks the D form. Peptide text beside a SMILES is read from it. Adipoyl = O=C(CCCCC(=O)[*:2])[*:1]; d(hPhe) = N[C@H](CCc1ccccc1)C(=O)O; hLeu = CC(C)CC[C@H](N)C(=O)O

For `CC(C)CC[C@H](NC(=O)CCCCC(=O)O)C(=O)N[C@@H](CCC(=O)O)C(=O)N[C@@H](Cc1c[nH]cn1)C(=O)N[C@H](CCc1ccccc1)C(=O)N[C@@H](CCCNC(=N)N)C(=O)N[C@@H](Cc1c[nH]c2ccccc12)C(=O)NCC(N)=O` [Conjugué 1, Adipoyl - Me.Nle - Glu - His - D-homo-Phé - Arg - Trp - Gly - NH2] (Adipoyl-[hLeu]EH[d(hPhe)]RWG-NH2), the “% inhib.” value is recorded as 60% with PGE2 (IL1 0,5 ng, conjugate 10^-4 M); 38% with PGE2 (IL1 0,5 ng, conjugate 10^-5 M); 19% in the test with PGE2 (IL1 0,5 ng, conjugate 10^-6 M); 13% in the test with PGE2 (IL1 0,5 ng, conjugate 10^-7 M); 10% in the test with PGE2 (IL1 0,5 ng, conjugate 10^-8 M); 53% with PGE2 (IL1 2,5 ng, conjugate 10^-4 M). In addition, the “% inhib.” value in the test on PGE2 (IL1 2,5 ng, conjugate 10^-5 M) was found to be 40%; with PGE2 (IL1 2,5 ng, conjugate 10^-6 M), 24%; in the test with PGE2 (IL1 2,5 ng, conjugate 10^-7 M), 6%; in the test with PGE2 (IL1 2,5 ng, conjugate 10^-8 M) it was 13%; with PGE2 (IL1 2,5 ng, conjugate 10^-9 M) it was 17%. The PGE2 is 113 ± 25 pg/mg d'ADN in the test with PGE2 (IL1 0,5 ng, conjugate 10^-4 M); 176 ± 37 pg/mg d'ADN with PGE2 (IL1 0,5 ng, conjugate 10^-5 M); 231 ± 55 pg/mg d'ADN in the test on PGE2 (IL1 0,5 ng, conjugate 10^-6 M); 249 ± 60 pg/mg d'ADN in the test on PGE2 (IL1 0,5 ng, conjugate 10^-7 M); 258 ± 35 pg/mg d'ADN with PGE2 (IL1 0,5 ng, conjugate 10^-8 M); 364 ± 56 pg/mg d'ADN with PGE2 (IL1 0,5 ng, conjugate 10^-9 M). Besides, the PGE2 in the test with PGE2 (IL1 2,5 ng, conjugate 10^-4 M) was 179 ± 50 pg/mg d'ADN; with PGE2 (IL1 2,5 ng, conjugate 10^-5 M) it was 232 ± 45 pg/mg d'ADN; in the test with PGE2 (IL1 2,5 ng, conjugate 10^-6 M), 292 ± 68 pg/mg d'ADN; in the test on PGE2 (IL1 2,5 ng, conjugate 10^-7 M) it was 364 ± 68 pg/mg d'ADN; in the test on PGE2 (IL1 2,5 ng, conjugate 10^-8 M) it was 335 ± 50 pg/mg d'ADN; in the test on PGE2 (IL1 2,5 ng, conjugate 10^-9 M) it was 320 ± 43 pg/mg d'ADN. Further, the action inhibitrice result in the test with PGE2 (Table 2, dose-effect relation, independent of IL1 concentration) was “bonne action inhibitrice”. Also, in the test on PGE2 (conjugate 10^-7 M and lower, at both IL1 concentrations (2,5 and 0,5 ng)), the “action à partir de 10^-7 M” value was “pas d'action”. For the same molecule, the “pouvoir inhibiteur de l'action de l'IL1 et de la PGE2” value with PGE2 (summary of Tables 2 and 3) is on record as “possèdent un pouvoir inhibiteur”. For the same molecule, the entries for the “% Augment. O. Gauche” value in test [1] (setting [2]), in test [1] (setting [4]) and in test [1] (setting [6]) were 21,50%, 19,00% and 17,50%, respectively. Moreover, the figures for the “% Augment. O. Droite” value in test [1] (setting [2]), in test [1] (setting [4]) and in test [1] (setting [6]) were 22,00%, 19,50% and 17,80%, respectively. Moreover, the figures for the “% Suppress. O. Gauche” value in test [1] (setting [3]), in test [1] (setting [5]) and in test [1] (setting [7]) were 62,93%, 67,24% and 69,80%, respectively. Besides, the “% Suppress. O. Droite” value in test [1] (setting [3]) is reported as 62,39%; in test [1] (setting [5]), 66,66%; in test [1] (setting [7]), 69,57%. For the same molecule, the “suppression de la réaction d'hypersensibilité cutanée induite par administration de D N F. B” value in test [1] (matches the 2,5 µg/souris/jour lots of Table 1) is listed as ~69%.

On to `CC(C)CC[C@H](N)C(=O)N[C@@H](CCC(=O)O)C(=O)N[C@@H](Cc1c[nH]cn1)C(=O)N[C@H](CCc1ccccc1)C(=O)N[C@@H](CCCNC(=N)N)C(=O)N[C@@H](Cc1c[nH]c2ccccc12)C(=O)NCC(N)=O` [Lot II, Me.Nle - Glu - His - D-homo-Phé - Arg - Trp - Gly - NH2] (H-[hLeu]EH[d(hPhe)]RWG-NH2), for which the “suppression de l'hypersensibilité cutanée” value with souris (0,1 µg/souris/jour) is 47%; in the test on souris (0,5 µg/souris/jour), ~60%; with souris (2,5 µg/souris/jour), ~69%.

Turning to `O=C(O)/C=C/CCCCCCCO` [Lot T, Acide trans-10-hydroxy-2-décénoïque], in the test on souris (0,01 µg/souris/jour (10 ng) topical in propylene glycol, control substance, one measurement per experiment, left ear), the “% Augment. O. Gauche” value is 55,80% and 57,10%. Also, the “% Augment. O. Droite” value with souris (0,01 µg/souris/jour (10 ng) topical in propylene glycol, control substance, one measurement per experiment, right ear) was 56,00% and 57,50%. For the same molecule, the “effet suppressif de l'hypersensibilité cutanée” value in the test with souris (in solution in propylene glycol, 10 ng per mouse per day) is “pas d'effet suppressif”.
